This is an account of results in patent US6689813B2 (Biostatin Gyogyszerkutato-Fejleszto kft., priority 1998, dated 2004).

Where no end group is shown, it is not given here. [ ]: non-standard residue; d: D form. βAsp(indolinyl) = β-Asp(indolinyl) N-terminal residue

One assay has as its system neurogenic inflammation. The settings on record: sodium salicylate 250 mg/kg i.v.; amidopyridine 200 mg/kg p.o.; phenylbutazone 100 mg/kg i.v.; flufenamic acid 20 mg/kg i.v.; indomethacin 10 mg/kg p.o.; cited from earlier work.
Assay [1] deals with Wistar rats. The assay can be described thus: 1% mustard oil-induced neurogenic inflammation (Evans blue plasma extravasation, foot skin). The assay is classed as in vivo, rat. The settings on record: for Decrease % (Evans blue extravasation vs control) / Evans blue extravasation: 20 μg/kg i.p.; for Decrease % (Evans blue extravasation vs control): 1% mustard oil; for Evans blue extravasation: 1% mustard oil on feet, control 169.525; for inhibition of mustard oil-induced neurogenic inflammation (in words): 20 μg/kg, 20 minutes after i.p. administration. Here is the method: Thirty minutes after acute bilateral denervation of the lower limbs (transsection of the saphenous and sciatic nerves), 50 mg/kg of Evans blue dye was administered to the tail vein of nembutal-anaesthetized (pentobarbital, 40 mg/kg i.p.) Wistar rats (150-220 g body weight; 5 to 7 animals in each group). […] The mustard oil induces a so-called neurogenic inflammation by the selective stimulation of the peripheral endings of CSPAN's and by releasing the mediators being present therein (chiefly tachykinins and CGRP); this neurogenic inflammation appears as a vasodilatation in the area of arterioles and in the form of a plasma extravasation at the venular side. Since the dye Evans blue is bound to serum albumin in the vascular bed, its precipitation and accumulation in the upper skin surface of foot are proportional to the extent of plasma extravasation. Thus, the quantitative determination of intensity of the inflammation becomes possible. After the painting with mustard oil, the animals were bled, the foot dorsum skins were cut out and their weights were determined. The amount of dye extracted during 72 hours of incubation in formamide was determined at 620 nm on a spectrophotometer (Spectromon 195). The amount (expressed as μg) of the extravasated Evans blue related to one g of wet tissue was calculated by means of the following formula:
Evans blue (μg/g)=E×V×k/m
E is the light absorption of the solution, V means the volume (ml) of the solution, m is the weight […] of the skin cut out from the foot dorsum skin; and k is a constant determined on the basis of a dilution series, which is characteristic of the dye solution.

Assay [2] concerns Wistar rats. The assay can be described thus: 0.5% dextran-induced non-neurogenic inflammation (foot swelling, plethysmometer) after chronic denervation. The assay is classed as in vivo, rat. How it is done: This test is based on the fact that a non-neurogenic, so-called clearly chemical inflammation can be induced by chemical excitation (e.g. by dextran, carrageenin, formalin) on a chronically denervated body area at least 5 days following the transsection of the nerve. These chemical agents release inflammation-inducing substances (histamine, bradykinin, PAF, prostaglandins and leucotrienes) from immunocytes, chiefly from mast cells.
Dextran solution (0.1 ml, 0.5%) is administered into both feet, underneath the plantar skin of Wistar rats (5 to 7 animals in each group) anaesthetized by nembutal (40 mg/kg i.v.) 5 days after bilateral denervation (transsection of the saphenous and sciatic nerves) of the lower limbs. The pretreated animals received somatostatin (SS), ocreotide or TT-232 (10 μg/kg i.p.) 10 minutes earlier. Before the administration of dextran (0 minute value), then after 10, 20 and 30 minutes, respectively, the swelling of the feet was measured by using a plethysmometer (Ugo Basil). Dextran elicits the so-called clearly chemical inflammation in the feet deprived of nerve supply (innervation) through the transmitters released from the mast cells.
A dose/effect ratio was determined for each substance.

The test system of assay [3] is Wistar rats. The assay can be described thus: Analgetic action: vegetative (pseudoaffective) reflex responses to mustard oil and capsaicin under urethane anaesthesia. Further details: Increase in heart rate: unit not given here. The settings on record: 10 μg/kg i.p. The assay is classed as in vivo, rat. From the text:
This test is based on the synchronous registration of several components of so-called pseudoaffective reflex responses, which can be induced on animals by pain-producing stimuli [Lim, R. K. S.: J. Comp. Neurol 118, 269-294 (1962)] under urethane anaesthesia.
A significant blood pressure increase of 45 mmHg as an average pressor response, heart rate increase of 85 (as an average) and hyperpnoea (the number of respirations increases by 61 per minute as an average) can be observed in control animals on the effect of strong chemonociceptive stimuli (painting of the lower limbs with 1% mustard oil or dropping a capsaicin solution of 100 μg/ml concentration into the eye) under urethane anaesthesia.
The blood pressure, heart rate and respiration of intact Wistar rats (5 to 7 animals in each group, with a body weight of 250 to 350 g) were continuously registered for 40 minutes through an arterial cannula as well as double ramifying trachea cannula. Ten minutes before beginning the measurement, the pretreated animals received intraperitoneally 10 μg/kg of somatostatin (SS), octreotide or TT-232, respectively. Both lower limbs of the animals were painted with mustard oil in the 3rd minute and capsaicin solution was dropped into their eyes in the 23rd minute. The vegetative responses given on these nociceptive stimuli were evaluated by using a specific computer program.

The mark [4] stands for this setting: Table 2.a, 10 mg/kg, 10 minutes.
[5] abbreviates: Table 2.a, 10 mg/kg, 30 minutes.

As for `O=C([O-])c1ccccc1O.[Na+]` [sodium salicylate], the “significant inhibitory effect on neurogenic inflammation” value (from here on “significant inhibitory effect”) in the assay with neurogenic inflammation is reported as “none”.

For the molecule `O=C(O)c1ccccc1Nc1cccc(C(F)(F)F)c1` [flufenamic acid], the “significant inhibitory effect” value in the assay with neurogenic inflammation is “none”.

For the molecule “D-Phe-Cys-Tyr-D-Trp-Gly-Cys-Thr-NH2 ([dF]CY[dW]GCT-NH2; cysteine pairing not given here) [VZ-934]”, in the assay on Wistar rats [1], the “Decrease % (Evans blue extravasation vs control)” value (“Decrease %” below) is given as 44.7%, the Evans blue extravasation came out at 93.7 µg/g and the “inhibition of mustard oil-induced neurogenic inflammation (in words)” value (“inhibition … (in words)” below) is “significantly inhibited”.

On to `O=C(NN=Cc1ccc(O)c(O)c1)C(=O)Nc1cccc([N+](=O)[O-])c1` [HDL 2722, 3′-nitrophenylamino-2-oxoacetyl-3″,4″-dihydroxyphenyl-hydra-zone], for which the “inhibition of 1% mustard oil-induced neurogenic inflammation (plasma extravasation)” value in the assay with Wistar rats [1] (50 μg) was 62%.

On to `Cc1c(N(C)C)c(=O)n(-c2ccccc2)n1C` [amidopyridine], for which the “significant inhibitory effect” value in the assay on neurogenic inflammation is recorded as “none”.

As to “β-Asp(indolinyl)-Cys-Tyr-D-Trp-Lys-Cys-Thr-NH2 ({βAsp(indolinyl)}-CY[dW]KCT-NH2; cysteine pairing not given here) [VZ-927]”, in the assay with Wistar rats [1], the “Decrease %” value came out at 60.44%, the Evans blue extravasation was 67.07 µg/g and the “inhibition … (in words)” value is recorded as “significantly inhibited”.

“D-Phe-Cys-Tyr-D-Trp-Lys-Cys-Trp-NH2 ([dF]CY[dW]KCW-NH2; cysteine pairing not given here) [VZ-924]”: in the assay with Wistar rats [1], the “Decrease %” value is recorded as 55.62%, the Evans blue extravasation is 75.26 µg/g and the “inhibition … (in words)” value is listed as “significantly inhibited”.

`Cc1cnc(NC(=O)C2=C(O)c3ccccc3S(=O)(=O)N2C)s1` [Meloxicam, reference compound]: the foot swelling % in the assay on Wistar rats [2] (Table 2.a, 0.2 mg/kg, 10 minutes) was determined as 27.60 ± 3.56%; in the assay with Wistar rats [2] (Table 2.a, 0.2 mg/kg, 20 minutes) it was 39.99 ± 3.65%; in the assay with Wistar rats [2] (Table 2.a, 0.2 mg/kg, 30 minutes), 45.81 ± 2.9%; in the assay on Wistar rats [2] (Table 2.a, 0.5 mg/kg, 10 minutes), 27.24 ± 3.56%; in the assay with Wistar rats [2] (Table 2.a, 0.5 mg/kg, 20 minutes) it was 38.86 ± 2.86%; with Wistar rats [2] (Table 2.a, 0.5 mg/kg, 30 minutes), 44.92 ± 2.99%. Further, the foot swelling % in the assay with Wistar rats [2] (Table 2.a, 1 mg/kg, 10 minutes) stood at 24.34 ± 2.57%; in the assay on Wistar rats [2] (Table 2.a, 1 mg/kg, 20 minutes) it was 36.46 ± 3.44%; in the assay with Wistar rats [2] (Table 2.a, 1 mg/kg, 30 minutes), 46.63 ± 3.2%; in the assay on Wistar rats [2] (setting [4]), 20.39 ± 2.26%; with Wistar rats [2] (Table 2.a, 10 mg/kg, 20 minutes), 33.36 ± 1.85%; in the assay with Wistar rats [2] (setting [5]) it was 39.34 ± 3.75%.

Consider `COc1ccc2c(c1)c(CC(=O)O)c(C)n2C(=O)c1ccc(Cl)cc1` [indomethacin], for which the “significant inhibitory effect” value in the assay with neurogenic inflammation is “none”.

As to “D-Phe-Cys-Tyr-Gly-Lys-Cys-Thr-NH2 ([dF]CYGKCT-NH2; cysteine pairing not given here) [VZ-1021]”, in the assay with Wistar rats [1], the “Decrease %” value worked out at 54.72%, the Evans blue extravasation was 76.72 µg/g and the “inhibition … (in words)” value was “significantly inhibited”.

For the molecule `O=C(O)Cc1ccccc1Nc1c(Cl)cccc1Cl` [Diclofenac, reference compound], the foot swelling % is given as 48.73 ± 4.84% in the assay on Wistar rats [2] (Table 2.a, 5 mg/kg, 20 minutes); 53.07 ± 3.95% in the assay on Wistar rats [2] (Table 2.a, 5 mg/kg, 30 minutes); 24.35 ± 3.31% in the assay on Wistar rats [2] (setting [4]); 42.61 ± 3.55% with Wistar rats [2] (setting [5]); 21.87 ± 2.84% in the assay with Wistar rats [2] (Table 2.a, 20 mg/kg, 10 minutes); 26.02 ± 1.79% in the assay with Wistar rats [2] (Table 2.a, 30 mg/kg, 10 minutes). Besides, in the assay on Wistar rats [2] (Table 2.a, 30 mg/kg, 30 minutes), the foot swelling % is 40.20 ± 1.73%.

Consider `C[C@@H](O)[C@@H]1NC(=O)[C@H](CCCCN)NC(=O)[C@@H](Cc2c[nH]c3ccccc23)NC(=O)[C@H](Cc2ccccc2)NC(=O)[C@@H](NC(=O)[C@H](N)Cc2ccccc2)CSSC[C@@H](C(=O)N[C@H](CO)[C@@H](C)O)NC1=O` [Octreotide, reference compound], for which the “protection against pseudoaffective reflex triad elicited by mustard oil and capsaicin (in words)” value with Wistar rats [3] (10 minutes before mustard oil) was “completely inactive”. The “Increase in respiration rate” value with Wistar rats [3] (after dropping capsaicin solution into the eye, control 47.5) was determined as 42 per minute; in the assay on Wistar rats [3] (after painting the feet by mustard oil, control 60.75), 45 per minute. The “Increase in mean arterial pressure” value in the assay on Wistar rats [3] (after dropping capsaicin solution into the eye, control 55) was 47.13 mmHg; in the assay on Wistar rats [3] (after painting the feet by mustard oil, control 45.4), 43.2 mmHg. Also, the “Increase in heart rate” value came to 127 with Wistar rats [3] (after dropping capsaicin solution into the eye, control 143) and 81.2 in the assay with Wistar rats [3] (after painting the feet by mustard oil, control 84.8). Further, in the assay with Wistar rats [2] (10 μg/kg, even 40 minutes following the pretreatment), the “prevention of dextran-induced non-neurogenic inflammation (in words)” value was “completely inactive”. The foot swelling % with Wistar rats [2] (Table 2, 10 μg/kg i.p. 10 min before dextran, 10 minutes, control 32.97) amounted to 31.36%; in the assay on Wistar rats [2] (Table 2, 10 μg/kg i.p. 10 min before dextran, 20 minutes, control 49.695), 47.7%; in the assay on Wistar rats [2] (Table 2, 10 μg/kg i.p. 10 min before dextran, 30 minutes, control 56.68) it was 54.8%. The “Decrease %” value in the assay with Wistar rats [1] was 3.952%. The same molecule came in with an Evans blue extravasation in the assay on Wistar rats [1] of 162.826 µg/g. In addition, in the assay with Wistar rats [1], the “inhibition … (in words)” value was “inactive”.
